Test results published in patent US20210106566A1, “PHARMACEUTICAL COMPOSITION FOR TREATING AND/OR PREVENTING PERIPHERAL NEUROPATHY OR SPINAL CORD INJURY” (NATIONAL UNIVERSITY CORPORATION NAGOYA UNIVERSITY, priority 2015, published 2021).

Columns and labels:
[1] = test system: mouse sciatic nerve autologous transplantation model; experiment: Mouse sciatic nerve autologous transplantation model: walking track analysis (SFI); type: in vivo; conditions: 30 mg/kg/day, 6 to 8 weeks after surgery
Source text: Adult male C57BL/6J mice (8 weeks old; 19.5-22.0 g) were purchased from Charles River. The mice were anesthetized with isoflurane and underwent gluteal muscle incision under a sterile condition to expose the sciatic nerve in the left leg. The sciatic nerve was cut at the following two sites (1) and (2): (1) the site 3 mm distal to the first bifurcation of biceps femoris (hereinafter referred to as proximal transection site) (2) the site 3 mm distal to the proximal transection site (hereinafter referred to as distal transection site) The excised nerve segment with a length of 3 mm was confirmed to be completely cut at the two sites. […] Myelin sheath formation in the sciatic nerve was analyzed in six mice in each group. […] The number and area of myelinated axons in the sciatic nerve were manually measured using ImageJ software in a blinded fashion. Motor function was assessed every week in three mice in each group using the walking track analysis. In the walking track analysis, footprints of both hindlimbs were recorded when mice were allowed to walk freely on a runway. Sciatic function index (SFI; Bain et al. Plast Reconstr Surg 83: 129-138 (1989)) was calculated by measuring the width and length of footprints of both legs in a blinded fashion. […] Footprints were recorded on six to eight thin boards.

[2] = test system: Bdnf, Ngf, Ntf4, Ntrk1, Ntrk2, Map2, Mapt, and Gap43; experiment: Severely crushed spinal cord model mice: mRNA in spinal cord segments; type: in vivo, mouse; conditions: spinal cord segment distal to the damaged area, 28 days after surgery, versus control group
Source text: Severely crushed spinal cord model mice were produced according to the “Method of producing severely crushed spinal cord model mice” as described in Example 8. Spinal cords were isolated from four mice in the zonisamide administration group and four mice in the control group 28 days after surgery and the segment of the damaged area with a length of 5 mm and the segment with a length of 5 mm distal to the damaged area were collected (FIG. 16). Total RNA was isolated using Trizol (Thermo Fisher Scientific) from each spinal cord segment with a length of 5 mm. Single-stranded cDNA was synthesized using ReverTra Ace (Toyobo). The mRNA expression levels of neurotrophic factors, Bdnf, Ngf, Ntf4, Ntrk1, Ntrk2, Map2, Mapt, and Gap43 were quantified using LightCycler 480 Real-Time PCR (Roche) and SYBR Green (Takara) (FIGS. 17, 18, 19, 20, 21, 22, 23, and 24). The mRNA levels were normalized with the expression level of GAPDH.

[3] = test system: mouse sciatic nerve autologous transplantation model; experiment: Mouse sciatic nerve autologous transplantation model: number and area of myelinated axons; type: in vivo; conditions: 30 mg/kg/day to the stomach, one week after surgery, section 0.7 mm distal to the distal transection site
Source text: Adult male C57BL/6J mice (8 weeks old; 19.5-22.0 g) were purchased from Charles River. The mice were anesthetized with isoflurane and underwent gluteal muscle incision under a sterile condition to expose the sciatic nerve in the left leg. The sciatic nerve was cut at the following two sites (1) and (2): (1) the site 3 mm distal to the first bifurcation of biceps femoris (hereinafter referred to as proximal transection site) (2) the site 3 mm distal to the proximal transection site (hereinafter referred to as distal transection site) The excised nerve segment with a length of 3 mm was confirmed to be completely cut at the two sites. The perineurium was sutured with nylon thread (10-0 black) at the proximal transection site and the distal transection site under a microscope. The remaining thread was used as a marker for finding the nerve transection site in the sacrifice of the mice. In order to reduce DMSO toxicity, a solution of 60 mg/mL zonisamide in 100% DMSO was prepared and the solution was diluted in olive oil to give a solution of 3 mg/mL zonisamide in 5% DMSO. […] Myelin sheath formation in the sciatic nerve was analyzed in six mice in each group. […] The number and area of myelinated axons in the sciatic nerve were manually measured using ImageJ software in a blinded fashion.

NS(=O)(=O)Cc1noc2ccccc12 [Zonisamide, 3-sulfamoylmethyl-1,2-benzisoxazole] was tested, and the “SFI (sciatic function index), motor function of hindlimbs” value [1] was “dramatically improved”, the “expression level of MAP2 gene” value [2] was “significantly increased” and the “expression level of NGF” value [2] was “seemed to be increased”. The “expression level of Tau gene” value [2] was “significantly increased”, the “area of axons, increase compared to the zonisamide non-administration group” value [3] was 3.9 fold and the number of axons [3] was “unchanged”.
